Experimental data from patent US8039510B2, “Methods of making and using theaflavin, theaflavin-3-gallate, theaflavin-3′-gallate and theaflavin 3,3′-digallate and mixtures thereof” (Nashai Biotech, LLC, priority 2001, dated 2011).

Tested on: Male Sprague-Dawley rats
Test: Lipid profile of rats fed cholesterol diet plus theaflavins or catechin for eight weeks
Format: in vivo, rat
Settings: for HDL / LDL / TC / TG: rat plasma, eight weeks; for reducing plasma levels of TC, LDL-C and TG, compared with catechin: rats
Description: Male Sprague-Dawley rats weighing 100 g to 130 g were divided into nine groups of ten rats. The animals were individually housed in stainless-steel cages with screen bottoms in a room maintained at between 22° C. and 24° C. They were fed stationary feedstuff and water as follows as described in Table 1. In addition the rats in Group TF1-1, TF1-2 or TF1-3 were fed pure theaflavin in a dosage of 1 mg/kg/day, 2 mg/kg/day and 4 mg/kg/day, respectively. The animals in group TF2A-2, TF2B-2 or RF3-2 were fed pure theaflavin-3-gallate, theaflavin-3′-gallate and theaflavin-3,3′-digallate, respectively in a dosage of 2 mg/kg/day. The animals in group CA-1 and CA-2 were fed catechins in a dosage of 1 mg/kg/day or 2 mg/kg/day, respectively.
The Sprague Dawley rats were fed the above diets for eight weeks before sampling. The rats were not fed for 12 hours prior to sampling. The rats were given either theaflavin, theaflavin-3-gallate, theaflavin-3′-gallate, theaflavin-3,3′-digallate or catechin one hour in advance of collecting the blood sample.

[1] = group TF1-3: 4 mg/kg/day per text (Table 1 prints 3)

theaflavin-3′-gallate
HDL (2 mg/kg/day): 49.3 ± 2.7^3
LDL (2 mg/kg/day): 32.4 ± 3.3^1
TC (2 mg/kg/day): 97.8 ± 8.5^1
TG (2 mg/kg/day): 96.2 ± 10.2^1
reducing plasma levels of TC, LDL-C and TG, compared with catechin: more effective

O=C(O[C@@H]1Cc2c(O)cc(O)cc2O[C@@H]1c1cc(=O)c(O)c2c(O)c(O)cc([C@H]3Oc4cc(O)cc(O)c4C[C@H]3O)c2c1)c1cc(O)c(O)c(O)c1 [theaflavin-3-gallate]
HDL (2 mg/kg/day): 49.2 ± 1.9^3
LDL (2 mg/kg/day): 32.2 ± 3.7^1
TC (2 mg/kg/day): 97.3 ± 8.4^1
TG (2 mg/kg/day): 95.7 ± 10.5^1
reducing plasma levels of TC, LDL-C and TG, compared with catechin: more effective

O=c1c(O)cc([C@H]2Oc3cc(O)cc(O)c3C[C@H]2O)cc2c([C@H]3Oc4cc(O)cc(O)c4C[C@H]3O)cc(O)c(O)c12 [theaflavin]
HDL (1 mg/kg/day): 48.8 ± 1.7^3
LDL (1 mg/kg/day): 45.6 ± 3.1^1
TC (1 mg/kg/day): 116.3 ± 8.2^1
TG (1 mg/kg/day, mean ± spread): 108.1 ± 13.8^2
HDL (2 mg/kg/day): 49.2 ± 2.1^3
LDL (2 mg/kg/day): 34.6 ± 3.7^1
TC (2 mg/kg/day): 101.3 ± 7.9^1
TG (2 mg/kg/day): 97.4 ± 11.6^1
HDL [1]: 49.4 ± 1.9^3
LDL [1]: 25.3 ± 2.2^1
TC [1]: 90.8 ± 7.1^1
TG [1]: 87.7 ± 12.2^1
reducing plasma levels of TC, LDL-C and TG, compared with catechin: more effective

theaflavin-3,3′-digallate
HDL (2 mg/kg/day): 49.3 ± 1.9^3
LDL (2 mg/kg/day): 31.2 ± 4.1^1
TC (2 mg/kg/day): 95.5 ± 7.4^1
TG (2 mg/kg/day): 95.36 ± 9.2^1
reducing plasma levels of TC, LDL-C and TG, compared with catechin: more effective
